Experimental data taken from publication PMC6445162, “Effects of NS2B-NS3 protease and furin inhibition on West Nile and Dengue virus replication” (Journal of Enzyme Inhibition and Medicinal Chemistry, 2017).
Peptide text beside a SMILES is read from it.

Assays:
WNV NS2B-NS3 protease = target: T1, WNV NS2B-NS3 protease (West Nile virus, UniProt P06935); experiment: Enzyme kinetic inhibition of WNV NS2B-NS3 protease construct (Dixon plot); format: biochemical; details: covalently linked WNV NS2B-NS3 construct; substrate Phac-Leu-Lys-Lys-Arg-AMC; Dixon plots, average of at least two measurements
T1 construct: WNV NS2B 40-amino acid cofactor together with the NS3 protease domain
Experimental: (§1) All measurements were performed at room temperature in black flat-bottom 96-well plates (Nunc, Langenselbold, Germany) using microplate readers (Tecan Safire^2, λex = 380 nm and λem = 460 nm, Tecan Group Ltd., Männedorf, Switzerland or Fluoroskan Ascent type 374, λex = 355 nm and λem = 460 nm; Thermo Fisher Scientific, Vantaa, Finland). The assays with the flavivirus protease constructs were performed with 125 μl buffer (100 mM Tris pH 8.5 containing 20% glycerol, 0.01% Triton X-100, and the inhibitor), 50 μl substrate solution, and were started by addition of 25 μl enzyme solution (total assay volume 200 μl).
For measurements with the covalently linked WNV NS2B-NS3 protease construct (∼4 nM in assay) the substrate Phac-Leu-Lys-Lys-Arg-AMC ×3 TFA (50 µM, 100 µM and 200 µM in assay, KM = 47.5 µM) was used, as described previously.
(§2) The DENV serotype 2 NS2B-NS3 protease construct was prepared from an identical clone as described by D’Arcy et al.[26] The purification of the protease was carried out in a buffer with high ion-strength and low pH value, in the absence of glycerol (20 mM Bis-Tris, 500 mM NaCl, pH 6.3), in order to prevent autolysis of the enzyme. Purification was performed by using a 5 ml HisTrapTM FF column (GE Healthcare) and subsequently, a HiLoad 16/60 SuperdexTM 75 column (GE Healthcare). The assays with the DENV-2 NS2B-NS3^pr° (∼39 nM in well) were performed with the substrate Phac-Lys-Arg-Arg-AMC ×3 TFA (125 µM, 62.5 µM and 31.25 µM in assay, KM = 60 µM). All Ki values were obtained from Dixon plots[27] and are the average of at least two measurements. Due to the weak potency of most compounds against the DENV-2 NS2B-NS3 protease construct, only the percentage of inhibition at a constant inhibitor concentration of 100 µM in the presence of 125 µM substrate was determined.

[1] = target: T2, DENV serotype 2 NS2B-NS3 protease (Dengue virus type 2, UniProt P14340); experiment: Enzyme kinetic inhibition of DENV-2 NS2B-NS3 protease construct; format: biochemical, Dengue virus serotype 2; details: for inhibition at 100 µM: 100 μM inhibitor in the presence of 125 μM substrate, read-out: % Inhib. (DENV)
T2 construct: The proteolytic activity of WNV and DENV is located in the N-terminal part of its NS3 protein; made in house
Experimental: as §1, §2

[2] = target: covalently linked WNV NS2B-NS3 protease construct (West Nile virus) (UniProt P06935); experiment: enzyme inhibition kinetics (Ki from Dixon plots, fluorogenic substrate); WNV NS2B-NS3 construct ~4 nM in assay; substrate Phac-Leu-Lys-Lys-Arg-AMC 50, 100 and 200 µM (KM = 47.5 µM); 100 mM Tris pH 8.5, 20% glycerol, 0.01% Triton X-100; room temperature; Ki the average of at least two measurements

## N=C(N)NCCC[C@H](NC(=O)[C@H](CCCCN)NC(=O)[C@H](CCCCN)NC(=O)Cc1ccccc1)C(N)=O [inhibitor 27] (HELM PEPTIDE1{[O=C(Cc1ccccc1)[*:2]].K.K.R.[am]}$$$$V2.0)
WNV NS2B-NS3 protease
  Ki: 2.47 µM
[1]
  inhibition at 100 µM: 20.8%

## 4-OH-Phac-Lys-Lys-Arg-NH2 (peptide)
[2]
  Ki: 0.54 µM

## N=C(N)NCCC[C@H](NC(=O)[C@H](CCCCN)NC(=O)[C@H](CCCCN)NC(=O)Cc1ccc2c(c1)OCO2)C(N)=O [inhibitor 32]
WNV NS2B-NS3 protease
  Ki: 0.68 µM
[1]
  inhibition at 100 µM: 19.9%

## 3-NH2-Phac-Lys-Lys-Arg-NH2 (peptide)
[2]
  Ki: 1.2 µM

## N=C(N)NCCC[C@H](NC(=O)[C@H](CCCCN)NC(=O)[C@H](CCCCN)NC(=O)Cc1ccc(-c2ccccc2)cc1)C(N)=O [inhibitor 34]
WNV NS2B-NS3 protease
  Ki: 0.53 µM
[1]
  inhibition at 100 µM: 27.1%

## Phac-Lys-Lys-Arg-Gly-NH2 (peptide)
[2]
  Ki: 2.56 µM

## Phac-Lys-Lys-Arg-Val-NH2 (peptide)
[2]
  Ki: 105 µM

## CC(C)[C@H](NC(=O)[C@H](CCCNC(=N)N)NC(=O)[C@H](CCCCN)NC(=O)[C@H](CCCCN)NC(=O)Cc1ccccc1)C(N)=O [inhibitor 21] (HELM PEPTIDE1{[O=C(Cc1ccccc1)[*:2]].K.K.R.V.[am]}$$$$V2.0)
WNV NS2B-NS3 protease
  Ki: 105 µM
[1]
  inhibition at 100 µM: 12%

## Phac-Lys-Lys-Arg-Tle-NH2 (peptide)
[2]
  Ki: 140 µM

## N=C(N)NCCC[C@H](NC(=O)[C@H](CCCCN)NC(=O)[C@H](CCCCN)NC(=O)Cc1ccccc1)C(=O)O [inhibitor 28, Phac-Lys-Lys-Arg-OH] (HELM PEPTIDE1{[O=C(Cc1ccccc1)[*:2]].K.K.R}$$$$V2.0)
WNV NS2B-NS3 protease
  Ki: 27 µM

## N=C(N)NCCC[C@H](NC(=O)[C@H](CCCCN)NC(=O)[C@H](CCCCN)NC(=O)Cc1ccc(Cl)c(Cl)c1)C(=O)NCC(N)=O [inhibitor 30] (HELM PEPTIDE1{[O=C(Cc1ccc(Cl)c(Cl)c1)[*:2]].K.K.R.G.[am]}$$$$V2.0)
WNV NS2B-NS3 protease
  Ki: 1.8 µM
[1]
  inhibition at 100 µM: 45%

## Cyclohexylacetic acid-Lys-Lys-Arg-NH2 (peptide)
[2]
  Ki: 4.8 µM

## N=C(N)NCCC[C@H](NC(=O)[C@H](CCCCN)NC(=O)[C@H](CCCCN)NC(=O)CC12CC3CC(CC(C3)C1)C2)C(N)=O [inhibitor 43]
WNV NS2B-NS3 protease
  Ki: 13.8 µM
[1]
  inhibition at 100 µM: 24.2%

## N=C(N)NCCC[C@H](NC(=O)[C@H](CCCCN)NC(=O)[C@H](CCCCN)NC(=O)Cc1ccc(CNC(=N)N)cc1)C(N)=O [inhibitor 38, 4-(guanidinomethyl)-phenylacetyl-Lys-Lys-Arg-NH2]
WNV NS2B-NS3 protease
  Ki: 0.11 µM
[1]
  inhibition at 100 µM: 65%

## 1-Adamantylacetic acid-Lys-Lys-Arg-NH2 (peptide)
[2]
  Ki: 13.8 µM

## N=C(N)NCCC[C@H](NC(=O)[C@H](CCCCN)NC(=O)[C@H](CCCCN)NC(=O)[C@@H](N)C12CC3CC(CC(C3)C1)C2)C(N)=O [inhibitor 44] (HELM PEPTIDE1{[N[C@H](C(=O)[*:2])C12CC3CC(CC(C3)C1)C2].K.K.R.[am]}$$$$V2.0)
WNV NS2B-NS3 protease
  Ki: 70 µM
[1]
  inhibition at 100 µM: 14.6%

## CC(C)(C)[C@H](NC(=O)[C@H](CCCNC(=N)N)NC(=O)[C@H](CCCCN)NC(=O)[C@H](CCCCN)NC(=O)Cc1ccccc1)C(N)=O [inhibitor 22] (HELM PEPTIDE1{[O=C(Cc1ccccc1)[*:2]].K.K.R.[CC(C)(C)[C@H](N[*:1])C(=O)[*:2]].[am]}$$$$V2.0)
WNV NS2B-NS3 protease
  Ki: 140 µM
[1]
  inhibition at 100 µM: 6.4%

## N=C(N)NCCC[C@H](NC(=O)[C@H](CCCCN)NC(=O)[C@H](CCCCN)NC(=O)Cc1cccc(CN)c1)C(N)=O [inhibitor 36]
WNV NS2B-NS3 protease
  Ki: 0.36 µM
[1]
  inhibition at 100 µM: 12.4%

## α-Cyclohexylglycine-Lys-Lys-Arg-NH2 (peptide)
[2]
  Ki: 26.3 µM

## Phac-Lys-Lys-Arg-Sar-NH2 (peptide)
[2]
  Ki: 50 µM

## N=C(N)NCCC[C@H](NC(=O)[C@H](CCCCN)NC(=O)[C@H](CCCCN)NC(=O)Cc1ccccc1)C(=O)NCC(=O)NCC(N)=O [inhibitor 17] (HELM PEPTIDE1{[O=C(Cc1ccccc1)[*:2]].K.K.R.G.G.[am]}$$$$V2.0)
WNV NS2B-NS3 protease
  Ki: 1.56 µM
[1]
  inhibition at 100 µM: 35.1%

## AC-D/L-α-phenylglycine-Lys-Lys-Arg-NH2 (peptide)
[2]
  Ki: 4.18 µM

## C[C@H](NC(=O)[C@H](CCCNC(=N)N)NC(=O)[C@H](CCCCN)NC(=O)[C@H](CCCCN)NC(=O)Cc1ccccc1)C(N)=O [inhibitor 19] (HELM PEPTIDE1{[O=C(Cc1ccccc1)[*:2]].K.K.R.A.[am]}$$$$V2.0)
WNV NS2B-NS3 protease
  Ki: 25 µM
[1]
  inhibition at 100 µM: 5.6%

## N=C(N)NCCC[C@H](NC(=O)[C@H](CCCCN)NC(=O)[C@H](CCCCN)NC(=O)Cc1cccc(N)c1)C(N)=O [inhibitor 31]
WNV NS2B-NS3 protease
  Ki: 1.2 µM
[1]
  inhibition at 100 µM: 27.5%

## CN(CC(N)=O)C(=O)[C@H](CCCNC(=N)N)NC(=O)[C@H](CCCCN)NC(=O)[C@H](CCCCN)NC(=O)Cc1ccccc1 [inhibitor 24] (HELM PEPTIDE1{[O=C(Cc1ccccc1)[*:2]].K.K.R.[Sar].[am]}$$$$V2.0)
WNV NS2B-NS3 protease
  Ki: 50 µM
[1]
  inhibition at 100 µM: 3.2%

## 4-GMe-Phac-Lys-Lys-GCMA
WNV NS2B-NS3 protease
  Ki: 0.23 µM
[1]; DENV-2 NS2B-NS3 construct, substrate Phac-Lys-Arg-Arg-AMC, Dixon plots
  Ki: 67 µM

## N=C(N)NCCC[C@H](NC(=O)[C@H](CCCCN)NC(=O)[C@H](CCCCN)NC(=O)Cc1ccccc1)C(=O)N1CCC[C@H]1C(N)=O [inhibitor 23] (HELM PEPTIDE1{[O=C(Cc1ccccc1)[*:2]].K.K.R.P.[am]}$$$$V2.0)
WNV NS2B-NS3 protease
  Ki: 200 µM
[1]
  inhibition at 100 µM: 5.2%

## N=C(N)NCc1ccc(CC(NC(=O)Cc2ccccc2)C(=O)NC(CCCCN)C(=O)NCC2CCC(NC(=N)N)CC2)cc1 (stereo not shown) [inhibitor 9]
WNV NS2B-NS3 protease
  Ki: 44 µM

## N=C(N)NCCC[C@H](NC(=O)[C@H](CCCCN)NC(=O)[C@H](CCCCN)NC(=O)Cc1ccccc1)C(=O)NCC(N)=O [inhibitor 18] (HELM PEPTIDE1{[O=C(Cc1ccccc1)[*:2]].K.K.R.G.[am]}$$$$V2.0)
WNV NS2B-NS3 protease
  Ki: 2.56 µM
[1]
  inhibition at 100 µM: 30.7%

## D/L-α-phenylglycine-Lys-Lys-Arg-NH2 (peptide)
[2]
  Ki: 3.6 µM

## Phac-Lys-Lys-Arg-Gaba-NH2 (peptide)
[2]
  Ki: 15 µM

## 3,4-Cl2-Phac-Lys-Lys-Arg-NH2 (peptide)
[2]
  Ki: 1.13 µM

## N=C(N)NCCC[C@H](NC(=O)[C@H](CCCCN)NC(=O)[C@H](CCCCN)NC(=O)Cc1ccccc1)C(=O)NCCCCCC(N)=O [inhibitor 26] (HELM PEPTIDE1{[O=C(Cc1ccccc1)[*:2]].K.K.R.[O=C(CCCCCN[*:1])[*:2]].[am]}$$$$V2.0)
WNV NS2B-NS3 protease
  Ki: 17 µM

## N=C(N)NCCC[C@H](NC(=O)[C@H](CCCCN)NC(=O)[C@H](CCCCN)NC(=O)C(N)C1CCCCC1)C(N)=O (stereo partly shown) [inhibitor 42] (HELM PEPTIDE1{[NC(C(=O)[*:2])C1CCCCC1].K.K.R.[am]}$$$$V2.0)
[1]
  inhibition at 100 µM: 31.7%

## 3-GMe-Phac-Lys-Lys-Arg-NH2 (peptide)
[2]
  Ki: 0.18 µM

## 3,4-(Methylenedioxy)-Phac-Lys-Lys-Arg-NH2 (peptide)
[2]
  Ki: 0.68 µM

## Phac-Lys-Lys-Arg-Ala-NH2 (peptide)
[2]
  Ki: 25 µM

## Phac-Lys-Lys-Arg-Aca-NH2 (peptide)
[2]
  Ki: 17 µM

## 1-Adamantylglycine-Lys-Lys-Arg-NH2 (peptide)
[2]
  Ki: 70 µM

## Phac-Lys-Lys-Arg-Pro-NH2 (peptide)
[2]
  Ki: 200 µM

## 4-Phenyl-Phac-Lys-Lys-Arg-NH2 (peptide)
[2]
  Ki: 0.53 µM

## 3,4-Cl2-Phac-Lys-Lys-Arg-Gly-NH2 (peptide)
[2]
  Ki: 1.8 µM

## 3-AMe-Phac-Lys-Lys-Arg-NH2 (peptide)
[2]
  Ki: 0.36 µM

## 4-AMe-Phac-Lys-Lys-Arg-NH2 (peptide)
[2]
  Ki: 0.38 µM

## Phac-Lys-Lys-Arg-DAla-NH2 (peptide)
[2]
  Ki: 75 µM

## Phac-Lys-Lys-Arg-NH2 (peptide)
[2]
  Ki: 2.47 µM

B1: Phac-Lys-Lys-Arg-Gly-Gly-NH2 (peptide)
peptide: KKRGG
HELM: PEPTIDE1{[O=C(Cc1ccccc1)[*:2]].K.K.R.G.G.[am]}$$$$V2.0
SMILES: N=C(N)NCCC[C@H](NC(=O)[C@H](CCCCN)NC(=O)[C@H](CCCCN)NC(=O)Cc1ccccc1)C(=O)NCC(=O)NCC(N)=O
[2]
  Ki: 1.56 µM
